The results in this text go back to PubChem BioAssay (NCI).

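Five compound concentrations were applied to cells in 96-well plates for 48 hours; endpoints were derived by simple linear interpolation of the resulting dose-response curve. GI50 = concentration required for 50% inhibition of growth. TGI is the concentration that stops growth completely.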

This assay relates to MDA-MB-468 breast. As to the kind of experiment: NCI anticancer screen, dose series, 48 h.

Regarding `Cn1c2c(c3ccc(-c4ccn[nH]4)cc3c1=O)C(=O)c1ccccc1-2`, the GI50 is 4900 nM and the TGI was above 100000 nM.
As for `O=C(COc1cccc(/C=C2/Oc3ccccc3C2=O)c1)Nc1nccs1`, the GI50 is 2160 nM and the TGI was 9070 nM.
Turning to `Cc1cc(C)c(C#N)c(SCC(=O)c2sc3c(C#N)c(C)cc(C)[n+]3c2[O-])n1`, the GI50 is 266 nM.
Turning to `O=C(Nc1ccc(Cl)cc1)Nc1ccc(Oc2nncc3ccccc23)cc1`, the GI50 is 752 nM and the TGI turned out to be 2520 nM.
As to `Oc1ccccc1N=Cc1c(O)ccc2ccccc12`, the GI50 was 7090 nM and the TGI is 29500 nM.
For `COc1cc(-c2cc(/C=C/C(=O)c3ccc(N)cc3)[nH]n2)cc(OC)c1OC`, in that order: 1010 nM and 2910 nM.
As to `Clc1ccc(N2CCN(CCCN3CCN(c4cccc(Cl)c4)CC3)CC2)cc1`, the GI50 was 1630 nM and the TGI was 10800 nM.
For the compound `C[C@H](O)CNc1cc(-c2[nH]c3cccnc3c2-c2ccc(F)cc2)ccn1`, the GI50 is 7540 nM and the TGI is above 25000 nM.
For `CN(C)c1ccc(-c2c(NC(C)(C)C)nc3c(OCCc4ccccc4)cccn23)cc1`, in that order: 2290 nM and 6280 nM.
On to `O=C1/C(=C/c2ccc(O)c(O)c2)COc2ccc(-c3ccccc3)cc21`, for which the GI50 is 731 nM and the TGI amounted to 2640 nM.
Turning to `Cc1ccc(NCCN2CCCCC2)c2c(=O)c3ccccc3sc12`, the GI50 was 2380 nM and the TGI came out at 5190 nM.
As for `CCc1c2c(nc3ccc(OC(=O)NCc4ccc(B5OC(C)(C)C(C)(C)O5)cc4)cc13)-c1cc3c(c(=O)n1C2)COC(=O)[C@]3(O)CC`, the GI50 is below 12.6 nM and the TGI came out at 89.4 nM.
Take `CN1C(=O)N(C)C2C1NN=c1s/c(=C\c3ccccc3F)c(=O)n12` (stereo not given): the GI50 was 211 nM and the TGI was above 100000 nM.
Consider `CCOC(=O)c1ccc2[nH]c(O)c(C(=Nc3ccc(N(C)C(=O)CN4CCN(C)CC4)cc3)c3ccccc3)c2c1`, for which the GI50 is 827 nM and the TGI was 2290 nM.
On the same counts, the results for `CCN(CC)CCOc1nc2c3ccc(Cl)cc3nn2c2ccccc12` are 1510 nM and 3570 nM.
On the same counts, the results for `Cc1cc(C(=O)NC(C)(C)C)cc(C#Cc2ccc3c4c(oc3c2)C(C)(C)c2cc(NS(C)(=O)=O)ccc2C4=O)n1` are 3180 nM and above 100000 nM.
On the same counts, the results for `CSCCC(NC(=O)CNC(=O)C(CC(=O)O)NC(=O)C(NC(=O)C(NC(=O)C(NC(=O)CNC(=O)C(CCC(N)=O)NC(=O)C(CCSC)NC(=O)C(CC(=O)O)NC(=O)C(C)NC(=O)C(C)NC(=O)C(NC(=O)C(CO)NC(=O)C(N)CC(C)C)C(C)O)C(C)C)C(C)C)C(C)O)C(=O)NC(C)C(=O)NC(CO)C(=O)NCC(=O)NC(CC(C)C)C(=O)NC(CC(=O)O)C(=O)NC(CCCCN)C(=O)NC(CC(=O)O)C(=O)NC(Cc1ccc(O)cc1)C(=O)NC(CC(C)C)C(=O)NC(CCCCN)C(=O)N1CCCC1C(=O)NC(CC(=O)O)C(=O)NC(CC(=O)O)C(=O)O` (stereo not given) are above 82500 nM and above 82500 nM.
Take `COc1ccc(C(=O)n2nc(/C=C/c3ccc(O)c(OC)c3)cc2/C=C/c2ccc(O)c(OC)c2)cc1`: the GI50 is 370 nM and the TGI stood at 2000 nM.
With `COC(=O)C1CCC(NC(=O)c2csc([C@@H](C[C@H](C(C)C)N(C)C(=O)[C@@H](NC(=O)[C@H]3CCCCN3C)C(C)C)OC(C)=O)n2)CC1` (stereo not given in full), the GI50 is 2.45 nM and the TGI amounted to 6.83 nM.
With `CCN(CC)CCNC(=O)c1cn2ncnc(Oc3ccc(NC(=O)Nc4ccc(Cl)c(C(F)(F)F)c4)cc3)c2c1C`, the GI50 was 1670 nM and the TGI worked out at 3290 nM.
For `O=C(O[C@H]1CN[C@H](C#Cc2cc3ncnc(Nc4ccc5c(cnn5Cc5ccccc5)c4)c3s2)C1)N1CCOCC1`, in that order: 209 nM and 2580 nM.
As for `O=C1c2ccccc2C(=O)c2c1ccc(C(Br)Br)c2Cl`, the GI50 is 2000 nM and the TGI was 4540 nM.
Regarding `COc1ccccc1/C=C/C=N/NC1=NC2C(S1)N(C)C(=O)N2C` (stereo not given), the GI50 is 2130 nM and the TGI stood at 7460 nM.
